Laboratory results published in US20080312164A1 (priority 2006, published 2008).
Marks after values point to notes of the source that are not given here.

How the values were obtained:
[1] = tested on: Du145 cells; assay: Calcein AM cytotoxicity assay, Du145; format: cell-based; details: Homo sapiens, DU-145; Du145, Calcein AM, 72 h; read-out: IC50
Description: (§1) Five serial 1:2 dilutions were made with anhydrous DMSO at 100× the final concentration used in the assay.

[2] = tested on: Du145 cells; assay: Cell Titer-Glo cytotoxicity assay, Du145; format: cell-based; details: Homo sapiens, DU-145; Du145, Cell Titer-Glo, 72 h; read-out: IC50
Description: as §1

[3] = tested on: HCT-116 cells; assay: Calcein AM cytotoxicity assay, HCT-116; format: cell-based; details: Homo sapiens; HCT-116, Calcein AM, 72 h; read-out: IC50
Description: as §1

[4] = tested on: HCT-116 cells; assay: Cell Titer-Glo cytotoxicity assay, HCT-116; format: cell-based; details: Homo sapiens; HCT-116, Cell Titer-Glo, 72 h; read-out: IC50
Description: as §1

[5] = tested on: Hep3B cells; assay: Calcein AM cytotoxicity assay, Hep3B; format: cell-based; details: Homo sapiens, Calcein AM, 72 h, read-out: IC50
Description: as §1

[6] = tested on: Hep3B cells; assay: Cell Titer-Glo cytotoxicity assay, Hep3B; format: cell-based; details: Homo sapiens, Cell Titer-Glo, 72 h, read-out: IC50
Description: as §1

[7] = tested on: SF-268 cells; assay: Calcein AM cytotoxicity assay, SF-268; format: cell-based; details: Homo sapiens; SF-268, Calcein AM, 72 h; read-out: IC50
Description: as §1

[8] = tested on: SF-268 cells; assay: Cell Titer-Glo cytotoxicity assay, SF-268; format: cell-based; details: Homo sapiens; SF-268, Cell Titer-Glo, 72 h; read-out: IC50
Description: as §1

[9] = tested on: SK-OV-3 cells; assay: Calcein AM cytotoxicity assay, SK-OV-3; format: cell-based; details: Homo sapiens; SK-OV-3, Calcein AM, 72 h; read-out: IC50
Description: as §1

[10] = tested on: SK-OV-3 cells; assay: Cell Titer-Glo cytotoxicity assay, SK-OV-3; format: cell-based; details: Homo sapiens; SK-OV-3, Cell Titer-Glo, 72 h; read-out: IC50
Description: as §1

[11] = tested on: NCI/ADR RES cells; assay: Calcein AM cytotoxicity assay, NCI/ADR-RES; format: cell-based; details: Homo sapiens, Calcein AM, 72 h, read-out: IC50
Description: as §1

[12] = tested on: NCI/ADR RES cells; assay: Cell Titer-Glo cytotoxicity assay, NCI/ADR-RES; format: cell-based, human; details: Homo sapiens; NCI/ADR-RES, Cell Titer-Glo, 72 h; read-out: IC50
Description: as §1

[13] = tested on: NCI-H460 cells; assay: Calcein AM cytotoxicity assay, NCI-H460; format: cell-based; details: Homo sapiens; NCI-H460, Calcein AM, 72 h; read-out: IC50
Description: as §1

[14] = tested on: NCI-H460 cells; assay: Cell Titer-Glo cytotoxicity assay, NCI-H460; format: cell-based, human; details: NCI-H460, Cell Titer-Glo, 72 h
Description: as §1

[15] = tested on: MCF7 cells; assay: Calcein AM cytotoxicity assay, MCF7; format: cell-based; details: Homo sapiens; MCF7, Calcein AM, 72 h; read-out: IC50
Description: as §1

[16] = tested on: MCF7 cells; assay: Cell Titer-Glo cytotoxicity assay, MCF7; format: cell-based, human; details: Homo sapiens; MCF7, Cell Titer-Glo, 72 h; read-out: IC50
Description: as §1

[17] = tested on: NmuMG mouse mammary normal epithelial cells; assay: Calcein AM cytotoxicity assay, NmuMG; format: cell-based; details: Epithelial cell, NmuMG, Calcein AM, 72 h, read-out: IC50
Description: as §1

[18] = tested on: NmuMG mouse mammary normal epithelial cells; assay: Cell Titer-Glo cytotoxicity assay, NmuMG; format: cell-based; details: Mus musculus, Epithelial cell; NmuMG, Cell Titer-Glo, 72 h; read-out: IC50
Description: as §1

[19] = tested on: HT-29 cells; assay: MTT cytotoxicity assay, HT-29; format: cell-based; details: Homo sapiens; HT-29, MTT, 24 h; read-out: IC50
[20] = tested on: human cancer cell lines; assay: Cytotoxicity across the panel of human cancer cell lines (average, high-throughput assays); format: cell-based; details: for IC50: read-out: Cancerous Average IC50 / Average IC50 in Cancer Cell Lines; for further fold increase in potency from multiple phenyl rings: average IC50 compared with single-ring 23 and 38
Description: as §1

[21] = average across eight human cancer cell lines, MTT (HT-29) values excluded

SMILES	IC50 [1]	IC50 [2]	IC50 [3]	IC50 [4]	IC50 [5]	IC50 [6]	IC50 [7]	IC50 [8]	IC50 [9]	IC50 [10]	IC50 [11]	IC50 [12]	IC50 [13]	IC50 ([14]; Homo sapiens, read-out: IC50)	IC50 [15]	IC50 [16]	IC50 [17]	IC50 [18]	IC50 [19]	IC50 [20, 21]	further results
CCCCc1ccc(N=C=S)cc1 [Compound 21, 1-butyl-4-isothiocyanatobenzene]	> 50 µM	48 µM	> 50 µM	19.4 µM	> 50 µM	> 50 µM	21.5 µM	32.1 µM	15.9 µM	31.4 µM	> 50 µM	> 50 µM	> 50 µM	> 50 µM	45.8 µM	45.4 µM	71.9 µM	65.7 µM	> 50 µM	35.2 µM	IC50 [14]: ^fNon-inhibitory in Hep3B, NCI/ADR RES, NCI-H460; Cancerous Average IC50 / Average IC50 in Cancer Cell Lines [20, 21]: 35.25^f μM
S=C=NCc1ccc(-c2ccccc2)cc1 [Compound 35, 1-(isothiocyanatomethyl)-4-phenylbenzene]	5.49 µM	11 µM	7.54 µM	4.83 µM	4.33 µM	4.51 µM	6.26 µM	4.4 µM	< 3.13 µM	4.65 µM	6.73 µM	12.1 µM	10.5 µM	15 µM	2.91 µM	6.72 µM	< 12.5 µM	65.7 µM	> 50 µM	7.89 µM	further fold increase in potency from multiple phenyl rings [20]: ~2 fold
CS(=O)(=O)CCCCN=C=S [Compound 14, 1-isothiocyanato-4-(methylsulfonyl)butane]	5.24 µM	4 µM	4.16 µM	3.29 µM	3.46 µM	4.48 µM	4.72 µM	3.7 µM	4.84 µM	6.99 µM	9.99 µM	11.1 µM	10 µM	6.87 µM	8.36 µM	2.28 µM	7.9 µM	5.32 µM	39.1 µM	5.32 µM	–
S=C=NCc1cccc(-c2ccccc2)c1 [Compound 34, 1-(isothiocyanatomethyl)-3-phenylbenzene]	7.11 µM	3.87 µM	2.93 µM	3.33 µM	6.9 µM	2.11 µM	3.95 µM	3.39 µM	4.92 µM	3.83 µM	1.47 µM	2.23 µM	3.53 µM	5.29 µM	2.52 µM	2.13 µM	5.95 µM	3.06 µM	28.8 µM	3.27 µM	selectivity for cancer cells over NmuMG cells ([20]; IC50 in NmuMG versus average IC50 in cancer cell lines): non-selective; further fold increase in potency from multiple phenyl rings [20]: ~2 fold
S=C=N[C@H]1CCCc2ccccc21 [Compound 31, (S)-1-isothiocyanato-1,2,3,4-tetrahydronaphthalene]	12.4 µM	17.4 µM	33 µM	12.2 µM	13.1 µM	20.1 ± 0.53 µM	8.51 µM	10.5 µM	> 30 µM	12.7 µM	25.1 µM	30.9 µM	25.4 µM	31.6 µM	14.5 µM	14.4 µM	18.6 µM	15.4 µM	> 50 µM	17.2 µM	–
